Like-named read-outs stand apart in the source and are kept apart here.
Assays:
[1] = target: Acetyl Cholinesterase EC 3.1.1.7, Type VS, electric eel (Sigma) (Electrophorus electricus, UniProt O42275); experiment: Hydrolysis of Compound 1 by authentic acetyl cholinesterase, assayed by gas chromatography
[2] = tested on: monoclonal antibody (catalytic receptor) produced by hybridoma 37E8, ATCC HB 10868; format: biochemical, mouse
[3] = target: T1, Butyl Cholinesterase EC 3.1.1.8, from horse serum (Sigma) (Equus caballus, UniProt P81908); experiment: Hydrolysis of Compound 1 by authentic butyl cholinesterase, assayed by gas chromatography; format: biochemical
T1 construct: purchased Sigma Chemical Co., St. Louis
Procedure: The production of Compound 2 by a monoclonal antibody composition of this invention was assayed at a concentration of 10 μM monoclonal antibody and 1 mM Compound 1 in pH 8.0 ATE buffer (0.52M ACES, 0.52M Tris, 0.01M ethanolamine) at 37° C. The initial rate of hydrolysis of Compound 1 by the monoclonal antibodies produced by hybridoma 37E8 followed Michaelis-Menten kinetics (Table 1 hereinafter).
The conditions used for this study were as follows. Monoclonal antibodies produced by hybridoma 37E8 (10 μM) were added to a solution of 800 μM Compound 1 and 25 μM Compound C. Under these conditions, the substrate concentration was at saturation for the monoclonal antibody (4.5Km) and at approximately Km for either cholinesterase.
^b EC 3.1.1.8. From horse serum (Sigma Chemical Co., St. Louis),
All assays consisted of determining the amount of Compound 2 by gas chromatography analysis (Hewlett Packard 5890A, carbowax 30 m, 0.53 mm bore, capillary column) with ethyl levulinate as an internal standard.

T1 sequence (P81908 whole entry): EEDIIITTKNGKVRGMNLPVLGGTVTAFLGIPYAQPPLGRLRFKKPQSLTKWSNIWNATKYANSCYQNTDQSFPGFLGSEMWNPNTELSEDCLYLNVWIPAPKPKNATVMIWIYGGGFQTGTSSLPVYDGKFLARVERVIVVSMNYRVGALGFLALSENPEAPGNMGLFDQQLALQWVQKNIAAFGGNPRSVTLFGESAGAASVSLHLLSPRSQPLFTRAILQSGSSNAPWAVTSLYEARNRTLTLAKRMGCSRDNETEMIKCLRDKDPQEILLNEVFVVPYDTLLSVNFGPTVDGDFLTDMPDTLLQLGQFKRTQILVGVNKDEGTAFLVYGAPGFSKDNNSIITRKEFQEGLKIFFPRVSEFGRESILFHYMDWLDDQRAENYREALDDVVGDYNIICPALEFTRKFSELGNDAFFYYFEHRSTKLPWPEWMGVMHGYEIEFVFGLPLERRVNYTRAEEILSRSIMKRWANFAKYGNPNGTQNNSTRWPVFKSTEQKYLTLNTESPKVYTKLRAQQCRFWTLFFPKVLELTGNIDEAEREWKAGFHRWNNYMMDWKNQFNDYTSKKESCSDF
Sequence of Acetyl Cholinesterase EC 3.1.1.7, Type VS, electric eel (Sigma) (O42275 24-633): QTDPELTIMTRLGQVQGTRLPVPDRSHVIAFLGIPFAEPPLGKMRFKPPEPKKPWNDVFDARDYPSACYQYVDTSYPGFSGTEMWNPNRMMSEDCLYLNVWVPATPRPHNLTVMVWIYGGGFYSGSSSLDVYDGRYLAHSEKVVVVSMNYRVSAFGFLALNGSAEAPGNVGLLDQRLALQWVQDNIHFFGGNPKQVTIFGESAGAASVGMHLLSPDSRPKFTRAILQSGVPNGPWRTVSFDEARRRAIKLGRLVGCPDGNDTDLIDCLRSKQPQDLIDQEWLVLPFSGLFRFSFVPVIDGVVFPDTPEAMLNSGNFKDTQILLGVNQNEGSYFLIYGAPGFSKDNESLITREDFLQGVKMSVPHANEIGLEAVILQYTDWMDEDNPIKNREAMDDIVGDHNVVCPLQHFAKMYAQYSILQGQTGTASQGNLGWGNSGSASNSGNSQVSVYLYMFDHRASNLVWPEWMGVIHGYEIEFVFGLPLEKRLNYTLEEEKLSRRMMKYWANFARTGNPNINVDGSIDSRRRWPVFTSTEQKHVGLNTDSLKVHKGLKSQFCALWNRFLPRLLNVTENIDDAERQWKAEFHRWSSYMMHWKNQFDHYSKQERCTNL

Structure (SMILES) | Ki [1] [µM] | inhibition by free Compound C [1] | inhibition of the hydrolytic reaction by free Compound C [2] | Ki ([2]; read-out: Ki (free Compound C)) [µM] | Ki ([2]; read-out: ki (inhibition of hydrolysis of Compound 1 by free Compound C)) [µM] | inhibition by free Compound C ([3]; 800 μM Compound 1, 25 μM Compound C) | Ki ([3]; 0.0117 units enzyme used, read-out: ki (hydrolysis of Compound 1, inhibitor Compound C)) [µM] | kcat (hydrolysis of Compound 1) ([2]; pH 8) | Km ([2]; pH 8, read-out: Km (hydrolysis of Compound 1)) [µM]
CC(=O)O[C@H]1C=C[C@@H](OP(=O)(O)CCCCCC(=O)O)C1 [Compound C] | 630 | no inhibition | extensive inhibition | 7 | 7 | no inhibition | 800 | – | –
CC(=O)O[C@@H]1C=C[C@H](OC(C)=O)C1 [Compound 1, cis-3,5-diactoxycyclopent-1-ene] | – | – | – | – | – | – | – | 0.007 | 177
